Measurements from patent US9637520B2, “Template-fixed peptidomimetics with CXCR7 modulating activity” (POLYPHOR AG, priority 2010, dated 2017).
Starred links: 1 amine or outer side, 2 acyl side, 3 side chain; linkers in the order of their positions; H or OH if unused. Non-standard residues stand in square brackets, D forms with d. Residues, ends and D or L forms follow the SMILES beside them. *: point of attachment. Arg(Nω,Nω'-propylene) = N[C@@H](CCCNC1=NCCCN1)C(=O)O; dPro(cis-4-NH2) = N[C@H]1CN[C@@H](C(=O)O)C1; X1 = O=C([C@H](CCCNCc1ccccn1)N[*:1])[*:2]; Oic = O=C(O)[C@@H]1C[C@@H]2CCCC[C@@H]2N1; Pro(cis-4-F) = O=C(O)[C@@H]1C[C@H](F)CN1; Morpholine(3S-CO) = O=C(O)[C@@H]1COCCN1; 1Nal = N[C@@H](Cc1cccc2ccccc12)C(=O)O; 2Nal = N[C@@H](Cc1ccc2ccccc2c1)C(=O)O; Pro(3S-OH) = O=C(O)[C@H]1NCC[C@@H]1O; cisHyp = O=C(O)[C@@H]1C[C@H](O)CN1; Tic = O=C(O)[C@@H]1Cc2ccccc2CN1; dTic = O=C(O)[C@H]1Cc2ccccc2CN1; Cha = N[C@@H](CC1CCCCC1)C(=O)O; Agb = N=C(N)NCC[C@H](N)C(=O)O; Chg = N[C@H](C(=O)O)C1CCCCC1; 2Pyrimidinyl = c1cnc(*)nc1; dPip = O=C(O)[C@H]1CCCCN1; Orn = NCCC[C@H](N)C(=O)O; Bn = c1ccc(C*)cc1

Target: T1, CXCR7 (Homo sapiens, UniProt P25106)
T1 construct: host or cells: CHO (PathHunter CHO-CXCR7 β-arrestin cells)
T1 sequence (P25106 whole entry): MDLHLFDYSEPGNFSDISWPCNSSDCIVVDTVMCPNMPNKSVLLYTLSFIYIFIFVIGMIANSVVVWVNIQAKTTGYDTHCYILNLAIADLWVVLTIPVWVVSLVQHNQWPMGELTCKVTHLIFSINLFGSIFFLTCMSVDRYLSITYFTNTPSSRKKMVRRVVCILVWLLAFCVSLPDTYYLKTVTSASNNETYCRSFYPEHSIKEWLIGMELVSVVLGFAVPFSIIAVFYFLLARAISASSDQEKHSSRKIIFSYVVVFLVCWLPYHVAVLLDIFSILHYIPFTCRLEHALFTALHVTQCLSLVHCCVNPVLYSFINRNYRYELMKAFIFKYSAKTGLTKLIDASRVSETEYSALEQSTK
Experiment: CXCR7 β-arrestin recruitment assay (PathHunter CHO-CXCR7, DiscoverX), agonistic assay
Type: cell-based
Conditions: agonistic assay; CHO CXCR7 β-arrestin cells; 90 min at 37° C.; chemiluminescence; read-out: β-Arrestin EC50
Protocol: Lyophilized peptides were weighed on a Microbalance (Mettler MX5) and dissolved in DMSO to a final concentration of 10 mM unless otherwise stated. Stock solutions were kept at +4° C., and protected from light.
2.2 CXCR7 β-Arrestin Recruitment Assay
The PathHunter CHO-CXCR7 (DiscoverX) assay was performed according to the manufacturer's protocol. In brief, CHO CXCR7 β-arrestin cells were seeded at a density of 5000 cells per well in 40 μl of F12 medium in black 96-half volume well culture plates and incubated overnight at 37° C. in a humidified atmosphere with 5% CO2. The next day, serial dilutions of PEM compounds have been prepared in DMSO and subsequently diluted in HBSS buffer containing 0.1% BSA.
For agonistic assay, 10 μl of compound solution or a solution of stromal cell-derived factor-1 (SDF-1) as positive control was added to the cells with a final DMSO concentration of 1% (v/v). The plate was incubated for 90 min at 37° C. in 5% CO2 incubator with gentle shaking (300 rpm) before addition of 40 μl of detection reagent per well. Reaction was developed for 90 min at room temperature in the dark with shaking, and chemiluminescence was measured with a Topcount (Perkin Elmer) luminescence counter.

Row | Structure (SMILES) | EC50 [nM]
1 | C[C@@H](O)[C@@H]1NC(=O)[C@H]2CCCN2C(=O)[C@H](Cc2c[nH]c3ccccc23)NC(=O)[C@H](CCCNC(=N)N)NC(=O)[C@@H](CCCNC(=N)N)NC(=O)[C@H](C2CCCCC2)NC1=O [compound 59, cyclo(-Chg-^DArg-Arg-Trp-^DPro-Thr-)] (cyclo([Chg][dR]RW[dP]T)) | 6.7 ± 2.2
2 | N=C(N)NCCC[C@@H]1NC(=O)[C@@H](CCCNC(=N)N)NC(=O)[C@H](Cc2cccc3ccccc23)NC(=O)[C@@H]2[C@@H](O)CCN2C(=O)[C@H]2CCCN2C(=O)[C@H](Cc2c[nH]c3ccccc23)NC1=O [compound 52, cyclo(-1Nal-^DArg-Arg-Trp-^DPro-Pro((3S)OH)—)] (cyclo([1Nal][dR]RW[dP][Pro(3S-OH)])) | 13.7 ± 5.1
3 | N=C(N)NCCC[C@@H]1NC(=O)[C@H](Cc2c[nH]c3ccccc23)NC(=O)[C@@H](Cc2ccccc2)NC(=O)[C@H](Cc2c[nH]c3ccccc23)NC(=O)[C@@H]2Cc3ccccc3CN2C(=O)[C@H]2C[C@@H](N)CN2C1=O [compound 26, cyclo(-Trp-^DPhe-Trp-Arg-^DPro((4R)NH2)-Tic-)] (cyclo(R[dPro(cis-4-NH2)][Tic]W[dF]W)) | 6.1 ± 3.3
4 | N=C(N)NCCC[C@@H]1NC(=O)[C@H](Cc2c[nH]c3ccccc23)NC(=O)[C@@H](Cc2ccccc2)NC(=O)[C@H](CCCNC2=NCCCN2)NC(=O)[C@@H]2Cc3ccccc3CN2C(=O)[C@H]2C[C@@H](N)CN2C1=O [compound 77, cyclo(-Orn(A56)-^DPhe-Trp-Arg-^DPro((4R)NH2)-Tic-)] (cyclo(R[dPro(cis-4-NH2)][Tic][Arg(Nω,Nω'-propylene)][dF]W)) | 181 ± 62.9
5 | CC[C@H](C)[C@@H]1NC(=O)[C@H]([C@@H](C)O)NC(=O)[C@H]2CCCN2C(=O)[C@H](Cc2c[nH]c3ccccc23)NC(=O)[C@H](CCCNc2ncccn2)NC(=O)[C@@H](CCCNC(=N)N)NC1=O [Ex. 68, cyclo(-Ile-^DArg-Orn(Ar2)-Trp-^DPro-Thr-)] (cyclo(I[dR][Orn](2Pyrimidinyl)W[dP]T)) | 453 ± 186
6 | C[C@@H]1NC(=O)[C@@H]2Cc3ccccc3CN2C(=O)[C@H]2C[C@@H](N)CN2C(=O)[C@H](CCCNC(=N)N)NC(=O)[C@H](Cc2c[nH]c3ccccc23)NC(=O)[C@@H](Cc2ccccc2)NC1=O [compound 27, cyclo(-Ala-^DPhe-Trp-Arg-^DPro((4R)NH2)-Tic-)] (cyclo(A[dF]WR[dPro(cis-4-NH2)][Tic])) | 322 ± 48.2
7 | N=C(N)NCCC[C@@H]1NC(=O)[C@H](Cc2c[nH]c3ccccc23)NC(=O)[C@@H](Cc2ccccc2)NC(=O)[C@H](Cc2c[nH]c3ccccc23)NC(=O)[C@@H]2C[C@@H]3CCCC[C@@H]3N2C(=O)[C@H]2C[C@@H](N)CN2C1=O [Ex. 41, cyclo(-Trp-^DPhe-Trp-Arg-^DPro((4R)NH2)-Oic-)] (cyclo([Oic]W[dF]WR[dPro(cis-4-NH2)])) | 20.9 ± 33.7
8 | CC[C@H](C)[C@@H]1NC(=O)[C@H]([C@@H](C)O)NC(=O)[C@H]2CCCN2C(=O)[C@H](Cc2ccc3ccccc3c2)NC(=O)[C@H](CCCNC(=N)N)NC(=O)[C@@H](CCCNC(=N)N)NC1=O [compound 15, cyclo(-Ile-^DArg-Arg-2Nal-^DPro-Thr-)] (cyclo([2Nal][dP]TI[dR]R)) | 0.4 ± 0.1
9 | CC[C@H](C)[C@@H]1NC(=O)[C@H]([C@@H](C)O)NC(=O)[C@H]2Cc3ccccc3CN2C(=O)[C@H](Cc2c[nH]c3ccccc23)NC(=O)[C@H](CCCNC(=N)N)NC(=O)[C@@H](CCCNC(=N)N)NC1=O [compound 67, cyclo(-Ile-^DArg-Arg-Trp-^DTic-Thr-)] (cyclo(I[dR]RW[dTic]T)) | 14.2 ± 5.2
10 | N=C(N)NCCC[C@@H]1NC(=O)[C@@H]2C[C@@H]3CCCC[C@@H]3N2C(=O)[C@H]2C[C@@H](N)CN2C(=O)[C@H](CCCNC(=N)N)NC(=O)[C@H](Cc2c[nH]c3ccccc23)NC(=O)[C@@H](Cc2ccccc2)NC1=O [compound 42, cyclo(-Arg-^DPhe-Trp-Arg-^DPro((4R)NH2)-Oic-)] (cyclo([Oic]R[dF]WR[dPro(cis-4-NH2)])) | 20.5 ± 10.9
11 | N=C(N)NCCC[C@@H]1NC(=O)[C@H](Cc2c[nH]c3ccccc23)NC(=O)[C@@H](Cc2ccccc2)NC(=O)[C@H](CCNC(=N)N)NC(=O)[C@@H]2Cc3ccccc3CN2C(=O)[C@H]2C[C@@H](N)CN2C1=O [compound 36, cyclo(-Agb-^DPhe-Trp-Arg-^DPro((4R)NH2)-Tic-)] (cyclo([Agb][dF]WR[dPro(cis-4-NH2)][Tic])) | 452 ± 15.8
12 | CC[C@H](C)[C@@H]1NC(=O)[C@@H]2[C@@H](O)CCN2C(=O)[C@H]2CCCN2C(=O)[C@H](Cc2ccc3ccccc3c2)NC(=O)[C@H](CCCNC(=N)N)NC(=O)[C@@H](CCCNC(=N)N)NC1=O [compound 53, cyclo(-Ile-^DArg-Arg-2Nal-^DPro-Pro((3S)OH)—)] (cyclo([2Nal][dP][Pro(3S-OH)]I[dR]R)) | 76.8 ± 47.9
13 | CC[C@H](C)[C@@H]1NC(=O)[C@H](CO)NC(=O)[C@H]2CCCN2C(=O)[C@H](Cc2c[nH]c3ccccc23)NC(=O)[C@H](CCCNC(=N)N)NC(=O)[C@@H](CCCNC(=N)N)NC1=O [Ex. 22, cyclo(-Ile-^DArg-Arg-Trp-^DPro-Ser-)] (cyclo(I[dR]RW[dP]S)) | 12.8 ± 3.5
14 | O=C1N[C@H](Cc2ccccc2)C(=O)N[C@@H](Cc2c[nH]c3ccccc23)C(=O)N[C@@H](CCCNC2=NCCCN2)C(=O)N2CCCC[C@@H]2C(=O)N2CC[C@H](O)[C@H]2C(=O)N[C@H]1Cc1c[nH]c2ccccc12 [Ex. 73, cyclo(-Trp-^DPhe-Trp-Orn(A56)-^DPip-Pro((3S)OH)—)] (cyclo(W[dF]W[Arg(Nω,Nω'-propylene)][dPip][Pro(3S-OH)])) | 14 ± 0.1
15 | N=C(N)NCCC[C@@H]1NC(=O)[C@H](Cc2c[nH]c3ccccc23)NC(=O)[C@@H](Cc2ccccc2)NC(=O)[C@H](Cc2c[nH]c3ccccc23)NC(=O)[C@@H]2C[C@H](OCc3ccccc3)CN2C(=O)[C@H]2C[C@@H](N)CN2C1=O [compound 50, cyclo(-Trp-^DPhe-Trp-Arg-^DPro((4R)NH2)-(4S)-Hyp(Bn)-)] (cyclo(R[dPro(cis-4-NH2)][cisHyp](Bn)W[dF]W)) | 6.6 ± 1.6
16 | CC[C@H](C)[C@@H]1NC(=O)[C@H]([C@@H](C)O)NC(=O)[C@H]2CCCN2C(=O)[C@H](Cc2ccccc2)NC(=O)[C@H](CCCNC(=N)N)NC(=O)[C@@H](CCCNC(=N)N)NC1=O [Ex. 6, cyclo(-Ile-^DArg-Arg-Phe-^DPro-Thr-)] (cyclo(F[dP]TI[dR]R)) | 46.4 ± 57.9
17 | CC[C@H](C)[C@@H]1NC(=O)[C@H]([C@@H](C)O)NC(=O)[C@H]2CCCN2C(=O)[C@H](Cc2c[nH]c3ccccc23)NC(=O)[C@H](CCCCN)NC(=O)[C@@H](CCCNC(=N)N)NC1=O [compound 3, cyclo(-Ile-^DArg-Lys-Trp-^DPro-Thr-)] (cyclo(I[dR]KW[dP]T)) | 78.7 ± 115

Further compounds by falling EC50, results first:

Row | EC50 [nM] | Structure (SMILES)
18 | 248 ± 16.5 | N=C(N)NCCC[C@@H]1NC(=O)[C@@H]2Cc3ccccc3CN2C(=O)[C@H]2C[C@@H](N)CN2C(=O)[C@H](CCCNC(=N)N)NC(=O)[C@H](Cc2c[nH]c3ccccc23)NC(=O)[C@@H](Cc2ccccc2)NC1=O [compound 33, cyclo(-Arg-^DPhe-Trp-Arg-^DPro((4R)NH2)-Tic-)] (cyclo(R[dF]WR[dPro(cis-4-NH2)][Tic]))
19 | 209 ± 6.6 | N=C(N)NCCC[C@@H]1NC(=O)[C@H](Cc2c[nH]c3ccccc23)NC(=O)[C@@H](Cc2ccccc2)NC(=O)[C@H](CCCNc2ncccn2)NC(=O)[C@@H]2Cc3ccccc3CN2C(=O)[C@H]2C[C@@H](N)CN2C1=O [Ex. 76, cyclo(-Orn(Ar2)-^DPhe-Trp-Arg-^DPro((4R)NH2)-Tic-)] (cyclo([Orn](2Pyrimidinyl)[dF]WR[dPro(cis-4-NH2)][Tic]))
20 | 132 ± 53.1 | N=C(N)NCCC[C@@H]1NC(=O)[C@H](Cc2c[nH]c3ccccc23)NC(=O)[C@@H](Cc2ccccc2)NC(=O)[C@H](Cc2c[nH]c3ccccc23)NC(=O)[C@@H]2COCCN2C(=O)[C@H]2CCCN2C1=O [compound 46, cyclo(-Trp-^DPhe-Trp-Arg-^DPro-Mor-)] (cyclo(R[dP][Morpholine(3S-CO)]W[dF]W))
21 | 119 ± 42.3 | N=C(N)NCCC[C@@H]1NC(=O)[C@H](Cc2c[nH]c3ccccc23)NC(=O)[C@@H](Cc2ccccc2)NC(=O)[C@H](Cc2c[nH]c3ccccc23)NC(=O)[C@@H]2C[C@H](F)CN2C(=O)[C@H]2CCCN2C1=O [Ex. 43, cyclo(-Trp-^DPhe-Trp-Arg-^DPro-Pro((4S)F)—)] (cyclo([Pro(cis-4-F)]W[dF]WR[dP]))
22 | 37.7 ± 18.5 | C[C@@H](O)[C@@H]1NC(=O)[C@H]2CCCN2C(=O)[C@H](Cc2c[nH]c3ccccc23)NC(=O)[C@H](CCCNC(=N)N)NC(=O)[C@@H](CCCNC(=N)N)NC(=O)[C@H](CC2CCCCC2)NC1=O [compound 62, cyclo(-Cha-^DArg-Arg-Trp-^DPro-Thr-)] (cyclo([Cha][dR]RW[dP]T))
23 | 8.2 ± 3.4 | CC[C@H](C)[C@@H]1NC(=O)[C@@H]2[C@@H](O)CCN2C(=O)[C@H]2CCCCN2C(=O)[C@H](Cc2c[nH]c3ccccc23)NC(=O)[C@H](CCCNC(=N)N)NC(=O)[C@@H](CCCNC(=N)N)NC1=O [Ex. 54, cyclo(-Ile-^DArg-Arg-Trp-^DPip-Pro((3S)OH)—)] (cyclo(I[dR]RW[dPip][Pro(3S-OH)]))
24 | 4.6 ± 0.8 | CC[C@H](C)[C@@H]1NC(=O)[C@H]([C@@H](C)O)NC(=O)[C@H]2CCCN2C(=O)[C@H](Cc2c[nH]c3ccccc23)NC(=O)[C@H](CCCNCc2ccccn2)NC(=O)[C@@H](CCCNC(=N)N)NC1=O [compound 70, cyclo(-Ile-^DArg-Orn(Ar4)-Trp-^DPro-Thr-)] (cyclo(I[dR][X1]W[dP]T))
